“And” between values parts separate entries of the source, which are not always exact repeats. Equal entries are not always repeated. Where two headings read alike, the source gives them in different places.
Legend:
[1] = test system: streptomycin-resistant E. coli; conditions: 180° F.; for Log Post-Disinfection (CFU/g) / Log Reduction (CFU/g): DT 18 min
Experimental: (§1) The following experiments were performed using a system in accordance with the present invention. Food crops were pruned of inedible roots, leaves, etc., and weighed. A given food crop was then inoculated with a single challenge microorganism. All challenge microorganisms were purchased from ATCC as streptomycin-resistant strains-Esherichia coli (E. coli), Staphylococcus aureus (S. aureus), and Salmonella choleraesuis (S. choleraesuis). […] After inoculation, the crops were left to dry for 30 minutes to 1 hour. The crops were then placed in the Ziploc® bag and into the vacuum chamber. […] Parameters such as vacuum pressure, dispensing time, and sterilization wait time were varied in order to arrive at some conclusion concerning the optimum conditions for effective disinfection of the food crops. After the disinfection cycle had ended, the crops were neutralized in 50 mL of 10% thiosulfate solution contained in a sterile mastication bag.
(§2) The bag was then placed in a masticator and pulverized for 2 minutes. The liquid contents were then serially diluted and plated onto the appropriate agar medium. The plates were incubated at 37° C. for 24 hours and plate counts were performed. […] A log reduction in terms of CFU/g was calculated by subtracting the plate counts of the disinfected food from that of its respective control, as shown in Table 1.
(§3) Lettuce was used as the food crop while streptomycin-resistant E. coli was chosen as the challenge microorganism. […] Each food crop was inoculated with streptomycin-resistant strains of E. coli, S. aureus, and S. choleraesuis in separate experiments and 3 minutes was used as the dispense time in every run.

[2] = test system: streptomycin-resistant S. aureus; conditions: 180° F.; for Log Post-Disinfection (CFU/g) / Log Reduction (CFU/g): DT 18 min
Experimental: as §1, §2, §3

[3] = test system: streptomycin-resistant S. choleraesuis; conditions: Radishes; dispense time 3 min; 180° F.; 18 inch Hg; wait 0 min
Experimental: as §1, §2, §3

[4] = test system: Bacillus subtilis spores
Experimental: A protocol analogous to that used for the food crops was employed for spore testing on stainless steel coupons. 3-1.75 cm×3.75 cm stainless steel coupons were each inoculated (front & back) with a total of 100 μL of Bacillus subtilis spores. The spores were allowed to dry and the three coupons were aseptically transferred to a Ziploc® bag. The remaining protocol used was similar to that of the food crops except that each coupon was neutralized in 8 mL of 10% thiosulfate solution and each coupon's solution was serially diluted and plated onto media.

[5] = test system: E. coli, S. aureus, S. choleraesuis
[6] = Carrots, VP 15 inch Hg, SW 10 min
[7] = Carrots, VP 15 inch Hg, SW 15 min
[8] = Carrots, VP 15 inch Hg, SW 20 min
[9] = Carrots, VP 15 inch Hg, SW 30 min
[10] = Carrots, VP 17 inch Hg, SW 5 min
[11] = Carrots, VP 18 inch Hg, SW 10 min
[12] = Lettuce, VP 15 inch Hg, SW 10 min
[13] = Lettuce, VP 15 inch Hg, SW 15 min
[14] = Radishes, VP 15 inch Hg, SW 10 min
[15] = Radishes, VP 15 inch Hg, SW 15 min
[16] = Table 3, Lettuce, dispense time 3 min, 18 inch Hg, wait 0 min
[17] = Radishes, VP 15 inch Hg, SW 30 min
[18] = Radishes, VP 20 inch Hg, SW 5 min
[19] = Radishes, VP 20 inch Hg, SW 10 min
[20] = Radishes, VP 20 inch Hg, SW 15 min
[21] = Radishes, dispense time 3 min, 18 inch Hg, wait 0 min
[22] = stainless steel coupons, 12 minute dispense time, 180° F., 18 inch Hg, wait 0 min

For `OO` [hydrogen peroxide], which “Log Post-Disinfection (CFU/g)” value [1, 6] is on record?
Its value is 0 CFU/g.

And the “Log Reduction (CFU/g)” value [1, 6]?
Its value is 4.90 CFU/g.

What about the “Log Post-Disinfection (CFU/g)” value [1, 7] of the same compound?
Its value is 0 CFU/g.

And the “Log Reduction (CFU/g)” value [1, 7]?
The value was 4.90 CFU/g.

And the “Log Post-Disinfection (CFU/g)” value [1, 8]?
Its value is 0 CFU/g.

What about the “Log Reduction (CFU/g)” value [1, 8] of the same compound?
Its value is 5.45 CFU/g.

What about the “Log Post-Disinfection (CFU/g)” value [1, 9] of the same compound?
Its value is 0 CFU/g.

And the “Log Reduction (CFU/g)” value [1, 9]?
The value was 4.90 CFU/g.

What about the “Log Post-Disinfection (CFU/g)” value [1, 10] of the same compound?
Its value is 0 CFU/g.

And the “Log Reduction (CFU/g)” value [1, 10]?
Its value is 5.45 CFU/g.

What about the “Log Post-Disinfection (CFU/g)” value [1, 11] of the same compound?
The value was 0 CFU/g.

And the “Log Reduction (CFU/g)” value [1, 11]?
The value was 5.45 CFU/g.

And the “Log Post-Disinfection (CFU/g)” value [1, 12]?
The value was 0 CFU/g.

And the “Log Reduction (CFU/g)” value [1, 12]?
Its value is 6.38 CFU/g.

What about the “Log Post-Disinfection (CFU/g)” value [1, 13] of the same compound?
The value was 1.93 CFU/g.

What about the “Log Reduction (CFU/g)” value [1, 13] of the same compound?
Its value is 4.31 CFU/g.

And the “Log Post-Disinfection (CFU/g)” value [1, 14]?
The value was 2.85 CFU/g.

And the “Log Reduction (CFU/g)” value [1, 14]?
Its value is 2.95 CFU/g.

And the “Log Post-Disinfection (CFU/g)” value [1, 15]?
Its value is 3.73 CFU/g.

And the “Log Reduction (CFU/g)” value [1, 15]?
Its value is 2.07 CFU/g.

What about the “Log10 Post-Disinfection (CFU/g)” value [1, 16] of the same compound?
The value was 0 CFU/g.

And the “Log10 Reduction (CFU/g)” value [1, 16]?
The value was “≧6.23 CFU/g”.

And the “Log Post-Disinfection (CFU/g)” value [2, 13]?
The value was 0 CFU/g.

What about the “Log Reduction (CFU/g)” value [2, 13] of the same compound?
The value was 6.81 CFU/g.

And the “Log Post-Disinfection (CFU/g)” value [2, 17]?
Its value is 0 CFU/g.

And the “Log Reduction (CFU/g)” value [2, 17]?
The value was 6.33 CFU/g.

What about the “Log Post-Disinfection (CFU/g)” value [2, 18] of the same compound?
The value was 0 CFU/g.

And the “Log Reduction (CFU/g)” value [2, 18]?
The value was 6.09 CFU/g.

What about the “Log Post-Disinfection (CFU/g)” value [2, 19] of the same compound?
The value was 0 CFU/g.

What about the “Log Reduction (CFU/g)” value [2, 19] of the same compound?
The value was 6.09 CFU/g.

What about the “Log Post-Disinfection (CFU/g)” value [2, 20] of the same compound?
Its value is 1.61 CFU/g.

What about the “Log Reduction (CFU/g)” value [2, 20] of the same compound?
Its value is 4.48 CFU/g.

What about the “Log10 Post-Disinfection (CFU/g)” value [2, 21] of the same compound?
The value was 0 CFU/g.

What about the “Log10 Reduction (CFU/g)” value [2, 21] of the same compound?
The value was “≧5.25 CFU/g”.

What about the “Log10 Post-Disinfection (CFU/g)” value [3] of the same compound?
Its value is 1.67 CFU/g and 1.95 CFU/g and 1.82 CFU/g.

What about the “Log10 Post-Disinfection (CFU/cm^2)” value [4, 22] of the same compound?
Its value is 0 CFU/cm^2.

What about the “Log10 Reduction (CFU/cm^2)” value [4, 22] of the same compound?
Its value is 5.42 CFU/cm^2.

And the eradication of spores ([4]; within a 12 minute dispense time)?
Its eradication of spores is “completely eradicate spores”.

What about the “log reductions for every combination of food crop and microbial challenge (Table 3)” value ([5]; 3 minutes dispense time) of the same compound?
The value was “greater than 3”.

What about the “average log reduction of all of the runs shown in Table 1” value ([5]; all food crops, microbial challenges and parameters of Table 1) of the same compound?
The value was 4.63.

What about the “log reduction (lowest over all runs of Table 1)” value ([5]; no matter the food crop, microbial challenge or disinfection parameters) of the same compound?
Its value is ≥ 2.
